Read-outs that look alike come from different tables or passages of the source.

In assay [1] the target is BACE 1 (Beta Secretase enzyme) (Homo sapiens, UniProt P56817). In words: In vitro enzymatic BACE FRET assay. Format: biochemical. The following applies: IC50 range symbols, Table 1; read-out: BACE 1 FRET assay. As to the method: In Vitro Enzymatic BACE FRET (Fluorescence Resonance Energy Transfer) Assay (Enzyme Assay Data in Table 1)
The assay buffer used in this screen is 0.05 M acetate, pH 4.2, 10% DMSO final, 100 uM genapol (which is a nonionic detergent, below its Critical Micelle Concentration). […] The assay is effectively started by the addition of FRET substrate (50 nM) and the combination is incubated for one hour. The FRET assay is terminated with by addition of Tris buffer, which raises the pH to neutrality, and the fluorescence is determined. The FRET substrate is a peptide with commercially available fluorophore and quencher, on opposite sides of the BACE cleavage site.

Assay [2] deals with Aβ40 in conditioned medium of cells stably expressing Amyloid Precursor Protein (APP). In words: In vitro BACE cell-based assay (HEK cell assay), Aβ40 sandwich ELISA. The following applies: IC50 range symbols, Table 1, Aβ40, 24 h incubation, read-out: HEK cell assay. As to the method:
In Vitro BACE Cell-Based Assay:
The cell-based assay measures inhibition or reduction of Aβ40 in conditioned medium of test compound treated cells expressing amyloid precursor protein.
Cells stably expressing Amyloid Precursor Protein (APP) were plated at a density of 40K cells/well in 96 well plates (Costar). The cells were cultivated for 24 hours at 37° C. and 5% CO2 in DMEM supplemented with 10% FBS. The test compounds were then added to cells in 10-point dose response concentrations with the starting concentration being either 100 μM or 10 μM. The compounds were diluted from stock solutions in DMSO and the final DMSO concentration of the test compounds on cells was 0.1%. After 24 h of incubation with the test compounds the supernatant conditioned media was collected and the Aβ 40 levels were determined using a sandwich ELISA. The IC50 of the compound was calculated from the percent of control or percent inhibition of Aβ 40 as a function of the concentration of the test compound.
The sandwich ELISA to detect Aβ 40 was performed in 96 well microtiter plates, which were pre-treated with goat anti-rabbit IgG (Pierce). The capture and detecting antibody pair that were used to detect Aβ 40 from cell supernatants were affinity purified pAb40 (Biosource) and biotinylated 6E10 (Signet Labs Inc.), respectively. The optimal concentration for the pAb40 antibody was 3 μg/ml in Superblock/TBS (Pierce) that was supplemented with 0.05% Tween 20 (Sigma).
Cellular supernatants were incubated with the capture antibody for 3 h at 4° C., followed by 3 wash steps in TBS-tween (0.05%). The detecting antibody incubation was for 2 h at 4° C., again followed by the wash steps as described previously. The final readout of the ELISA is Time-Resolved Fluorescence (counts per minute) using Delfia reagents Streptavidin-Europium and Enhancement solutions (Perkin Elmer) and the Victor 2 multilabel counter (Perkin Elmer).

Sequence of BACE 1 (Beta Secretase enzyme) (P56817 46-501, species assumed): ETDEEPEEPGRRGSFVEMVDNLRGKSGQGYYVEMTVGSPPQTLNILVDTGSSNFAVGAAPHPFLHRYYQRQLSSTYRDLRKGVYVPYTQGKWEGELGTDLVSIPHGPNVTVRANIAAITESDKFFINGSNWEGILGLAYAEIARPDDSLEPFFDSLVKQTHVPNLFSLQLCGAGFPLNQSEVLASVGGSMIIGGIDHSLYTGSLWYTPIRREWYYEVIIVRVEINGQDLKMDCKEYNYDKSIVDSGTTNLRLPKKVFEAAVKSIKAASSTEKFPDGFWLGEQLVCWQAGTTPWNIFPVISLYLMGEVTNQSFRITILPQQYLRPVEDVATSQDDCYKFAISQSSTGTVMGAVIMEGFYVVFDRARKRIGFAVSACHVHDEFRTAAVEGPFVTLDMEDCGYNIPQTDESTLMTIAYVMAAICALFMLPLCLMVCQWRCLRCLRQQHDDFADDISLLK

For the compound “3-(2-amino-6-(2-((2-methoxyphenyl)carbonyl)phenyl)-3-quinolinyl)-N-(2,2-dimethyltetrahydro-2H-pyran-4-yl)-2-methylpropanamide [Example 146]”, the IC50 in assay [1] and in assay [2] was below 0.5 µM throughout.

With “3-(2-amino-6-(2-methyl-6-(1-pyrrolidinylcarbonyl)phenyl)-3-quinolinyl)-N-(2,2-dimethyltetrahydro-2H-pyran-4-yl)-2-methylpropanamide [Example 145]”, the IC50 in assay [1] and in assay [2] was below 0.5 µM throughout.

Consider “3-(2-amino-6-o-tolylquinolin-3-yl)-N-(tetrahydro-2H-pyran-4-yl)propanamide [Example 16]”, for which the IC50 in assay [1] and in assay [2] was 1 to 5 µM throughout.

Take “3-(3-amino-7-o-tolylnaphthalen-2-yl)-2-methyl-N-(pyridin-3-ylmethyl)propanamide [Example 69]”: the IC50 in assay [1] was below 0.5 µM; in assay [2], 0.5 to 1 µM.

Regarding “3-(3-amino-7-o-tolylnaphthalen-2-yl)-N-(1-(2-methoxyphenyl)ethyl)-2-methylpropanamide [Example 70]”, the IC50 was below 0.5 µM in assay [1] and 1 to 5 µM in assay [2].

For the compound “3-(3-amino-7-o-tolylnaphthalen-2-yl)-N-(1-(pyridin-2-yl)ethyl)propanamide [Example 56]”, the IC50 is below 0.5 µM in assay [1] and 1 to 5 µM in assay [2].

Turning to “3-(3-amino-7-o-tolylnaphthalen-2-yl)-N-(1-phenylethyl)propanamide [Example 30]”, the IC50 in assay [1] was below 0.5 µM; in assay [2], 1 to 5 µM.

With “3-(3-amino-7-o-tolylnaphthalen-2-yl)-N-(2,3-dihydro-1H-inden-1-yl)propanamide [Example 57]”, the IC50 in assay [1] was below 0.5 µM; in assay [2] it was 1 to 5 µM.

Take “3-(3-amino-7-o-tolylnaphthalen-2-yl)-N-(2-fluorophenyl)propanamide [Example 28]”: the IC50 lay within 0.5 to 1 µM in assay [1] and 1 to 5 µM in assay [2].

As to “3-(3-amino-7-o-tolylnaphthalen-2-yl)-N-(2-methoxy-2-methylpropyl)propanamide [Example 29]”, the IC50 in assay [1] was in the range of 0.5 to 1 µM; in assay [2], 1 to 5 µM.

For the compound “3-(3-amino-7-o-tolylnaphthalen-2-yl)-N-(2-methoxybutyl)propanamide [Example 26]”, the IC50 in assay [1] is below 0.5 µM; in assay [2], 1 to 5 µM.

For “3-(3-amino-7-o-tolylnaphthalen-2-yl)-N-(6,7-dihydro-5H-cyclopenta[b]pyridin-7-yl)-2-methylpropanamide [Example 73]”, the IC50 is below 0.5 µM in assay [1] and 1 to 5 µM in assay [2].

For the compound “3-(3-amino-7-o-tolylnaphthalen-2-yl)-N-((R)-1-(2-fluorophenyl)ethyl)propanamide [Example 55]”, the IC50 in assay [1] is below 0.5 µM; in assay [2], 1 to 5 µM.

On to “3-(3-amino-7-o-tolylnaphthalen-2-yl)-N-((R)-1-cyclohexylethyl)propanamide [Example 31]”, for which the IC50 in assay [1] is below 0.5 µM; in assay [2], above 5 µM.

As to “3-(3-amino-7-o-tolylnaphthalen-2-yl)-N-((S)-1-cyclohexylethyl)propanamide [Example 35]”, the figures for the IC50 in assay [1] and in assay [2] were below 0.5 µM and above 5 µM, respectively.

For the compound “3-(3-amino-7-o-tolylnaphthalen-2-yl)-N-(pyridin-2-ylmethyl)propanamide [Example 36]”, the IC50 in assay [1] is below 0.5 µM; in assay [2], 1 to 5 µM.

Take “3-(3-amino-7-o-tolylnaphthalen-2-yl)-N-(pyridin-3-ylmethyl)propanamide [Example 37]”: the IC50 in assay [1] was below 0.5 µM; in assay [2], 1 to 5 µM.

Consider “3-(6-(3-chloropyridin-2-yl)quinolin-3-yl)-N-((4,4-difluorocyclohexyl)methyl)-2-methylpropanamide [Example 99]”, for which the IC50 was below 0.5 µM in assay [1] and 1 to 5 µM in assay [2].

As to `Cc1ccccc1-c1ccc2nc(N)c(CCC(=O)N(C)C3CCCCC3)cc2c1` [Example 1, 3-(2-amino-6-o-tolylquinolin-3-yl)-N-cyclohexyl-N-methylpropanamide], the IC50 in assay [2] (Homo sapiens, HEK293, 24 h) is below 0.5 µM.

With `Cc1cccnc1-c1ccc2nc(N)c(CC(C)C(=O)NCCC(C)(C)C)cc2c1` (stereo not shown) [Example 5, 3-(2-amino-6-(3-methylpyridin-2-yl)quinolin-3-yl)-N-(3,3-dimethylbutyl)-2-methylpropanamide], the IC50 in assay [2] (Homo sapiens, HEK293, 24 h) was 0.5 to 1 µM.

Take `Cc1ccccc1-c1ccc2nc(N)c(CCC(=O)NC3CCCCC3)cc2c1` [Example 13, 3-(2-amino-6-o-tolylquinolin-3-yl)-N-cyclohexylpropanamide]: the IC50 in assay [2] (Homo sapiens, HEK293, 24 h) was 0.5 to 1 µM.

Regarding `Cc1ccccc1-c1ccc2nc(N)c(CCC(=O)NCC3CCCCC3)cc2c1` [Example 14, 3-(2-amino-6-o-tolylquinolin-3-yl)-N-(cyclohexylmethyl)propanamide], the IC50 in assay [2] (Homo sapiens, HEK293, 24 h) fell in the range of 0.5 to 1 µM.

With `Cc1ccccc1-c1ccc2nc(N)c(CC(C)C(=O)NCC3CCCCC3)cc2c1` (stereo not shown) [Example 22, 3-(2-amino-6-o-tolylquinolin-3-yl)-N-(cyclohexylmethyl)-2-methylpropanamide], the IC50 in assay [2] (Homo sapiens, HEK293, 24 h) is below 0.5 µM.

Regarding `Cc1ccccc1-c1ccc2nc(N)c(CC(C)C(=O)NCc3ccccc3)cc2c1` (stereo not shown) [Example 52, 3-(2-amino-6-o-tolylquinolin-3-yl)-N-benzyl-2-methylpropanamide], the IC50 in assay [2] (Homo sapiens, HEK293, 24 h) lay in the range of 1 to 5 µM.

Turning to `CCC(Cc1cc2cc(-c3ccccc3C)ccc2nc1N)C(=O)NCC1CCCCC1` (stereo not shown) [Example 60, 2-((2-amino-6-o-tolylquinolin-3-yl)methyl)-N-(cyclohexylmethyl)butanamide], the IC50 in assay [2] (Homo sapiens, HEK293, 24 h) is above 5 µM.

`Cc1ccccc1-c1ccc2nc(N)c(CC(C(=O)NCC3CCCCC3)C(C)C)cc2c1` (stereo not shown) [Example 66, 2-((2-amino-6-o-tolylquinolin-3-yl)methyl)-N-(cyclohexylmethyl)-3-methylbutanamide]: the IC50 in assay [2] (Homo sapiens, HEK293, 24 h) lay within 1 to 5 µM.

As for `Cc1ccccc1-c1ccc2nc(N)c(C[C@@H](C)C(=O)NCc3cnccn3)cc2c1` [Example 80, (R)-3-(2-amino-6-o-tolylquinolin-3-yl)-2-methyl-N-(pyrazin-2-ylmethyl)propanamide], in assay [2] (Homo sapiens, HEK293, 24 h), the IC50 was below 0.5 µM.

Take `Cc1ccccc1-c1ccc2nc(N)c(C[C@@H](C)C(=O)NCC3CCOCC3)cc2c1` [Example 87, (R)-3-(2-amino-6-o-tolylquinolin-3-yl)-2-methyl-N-((tetrahydro-2H-pyran-4-yl)methyl)propanamide]: the IC50 in assay [2] (Homo sapiens, HEK293, 24 h) was below 0.5 µM.

In the case of `Cc1ccccc1-c1ccc2nc(N)c(CC(C)C(=O)NCCC(C)(C)C)cc2c1` (stereo not shown) [Example 90, 3-(2-amino-6-o-tolylquinolin-3-yl)-N-(3,3-dimethylbutyl)-2-methylpropanamide], the IC50 in assay [2] (Homo sapiens, HEK293, 24 h) was below 0.5 µM.

Take `Cc1ccccc1-c1ccc2nc(N)c(CC(C)C(=O)NCc3cncs3)cc2c1` (stereo not shown) [Example 93, 3-(2-amino-6-o-tolylquinolin-3-yl)-2-methyl-N-(thiazol-5-ylmethyl)propanamide]: in assay [2] (Homo sapiens, HEK293, 24 h), the IC50 was below 0.5 µM.

Turning to `Cc1cccnc1-c1ccc2nc(N)c(C[C@@H](C)C(=O)NCCC(C)(C)C)cc2c1` [Example 126, (R)-3-(2-amino-6-(3-methylpyridin-2-yl)quinolin-3-yl)-N-(3,3-dimethylbutyl)-2-methylpropanamide], the IC50 in assay [2] (Homo sapiens, HEK293, 24 h) is below 0.5 µM.

`C[C@H](Cc1cc2cc(-c3ncccc3Cl)ccc2nc1N)C(=O)NCCC(C)(C)C` [Example 128, (R)-3-(2-amino-6-(3-chloropyridin-2-yl)quinolin-3-yl)-N-(3,3-dimethylbutyl)-2-methylpropanamide]: the IC50 in assay [2] (Homo sapiens, HEK293, 24 h) is below 0.5 µM.

In the case of `CC(=O)c1ccccc1-c1ccc2nc(N)c(CC(C)C(=O)NCCC(C)(C)C)cc2c1` (stereo not shown) [Example 156, 3-(6-(2-acetylphenyl)-2-aminoquinolin-3-yl)-N-(3,3-dimethylbutyl)-2-methylpropanamide], in assay [2] (Homo sapiens, HEK293, 24 h), the IC50 was below 0.5 µM.

For `Cc1ccccc1-c1ccc2nc(N)c(C[C@@H](C)C(=O)NC3CCOC(C)(C)C3)cc2c1` (stereo partly drawn) [Example 164, (2R)-3-(2-amino-6-o-tolylquinolin-3-yl)-N-(2,2-dimethyltetrahydro-2H-pyran-4-yl)-2-methylpropanamide], the IC50 in assay [2] (Homo sapiens, HEK293, 24 h) is below 0.5 µM.

(Values after patent US9296698B2, “Amino heteroaryl compounds as beta-secretase modulators and methods of use” (Amgen Inc., priority 2009, dated 2016).)
